We go through three substances from patent US11198711B2 (priority 2013, dated 2021).

Assay [1] concerns Mamestra brassicae larvae. Description: Injection bioassay with Mamestra brassicae larvae. The assay is classed as in vivo. Conditions: injection at up to 40 μg/insect. As to the method:
3rd-5th instar Mamestra brassicae larvae (approximately 30-55 mg in weight) were used for injection bioassays. Larvae were injected with varying doses of Hv1a, pro-Hv1a, pro-Hv1a/GNA, PI1a, Ao1bProPI1a, PI1a/GNA, Ao1bPro-PI1a/GNA, or Hv1aPro-PI1a/GNA (n=20 per dose) in 5 μl of PBS (phosphate buffered saline; 0.15 M NaCl, 0.015 M sodium-phosphate buffer, pH 7.2). Larvae for controls were injected with 5 μl 1×PBS. Paralysis and mortality was recorded 12-96 h after injection.

Assay [2] concerns Mamestra brassicae larvae. Description: Droplet-feeding (oral) assay with Mamestra brassicae larvae. Type of assay: in vivo. On the procedure: Droplet-feeding assays were carried out to assess the oral activity of Hv1a/GNA, pro-Hv1a/GNA, PI1a, Ao1bProPI1a, PI1a/GNA, Ao1bPro-PI1a/GNA, or Hv1aPro-PI1a/GNA towards third to fifth instar larvae of M. brassicae. Larvae were starved for approximately 24 h before feeding in order to encourage droplet consumption. Larvae were fed with a 2 μl droplet containing 20 μg of the above fusion proteins, 30 μg of toxins or 30 μg of GNA, in 1×PBS solution containing 10% sucrose (w/w). Control larvae were fed on PBS/sucrose droplets containing no added protein. Treated larvae were placed on standard artificial diet after consumption of the droplet.

Assay [3] relates to Spodoptera sp. Conditions: native PI1a, literature value; cited from earlier work.
The subject of assay [4] is invertebrate calcium channels. Conditions: cited from earlier work.
Assay [5] concerns vertebrate calcium channels. The settings on record: cited from earlier work.

With snowdrop lectin (GNA), the mortality result in assay [1] is reported as “do not result in mortality”. Moreover, the reductions in survival in assay [2] (30 μg control treatments, 3rd stadium) is reported as 0-20%. For the same substance, the “mortality after 5 days” value in assay [2] (single 2 μl droplet containing 20 μg, third instar) worked out at 20%.

Turning to “δ-amaurobitoxin-PI1a [Pl1a (literature)]”, in assay [3], the LD50 is 9.5 µg/g.

ω-ACTX-Hv1a [Hv1a (literature)]: in assay [4], the “block of invertebrate calcium channels” value is given as “block invertebrate”. Also, the “block of vertebrate calcium channels” value in assay [5] is given as “not vertebrate”.
